These results are taken from article PMC9570898, “Comparing Variants of the Cell-Penetrating Peptide sC18 to Design Peptide-Drug Conjugates” (Molecules, 2022).

No end group written: not given here.

In experiment [1] the test system is HeLa cells. The experiment is described as follows: Cellular uptake by flow cytometry in HeLa cells. The experiment is classed as cell-based, human. As to conditions: 1 and 10 µM CF-labeled peptide, 30 min, 37 °C, serum-free medium, triplicate n = 3. The method, then:
(§1) Monolayer cellular uptake was quantified using flow cytometry. Cells were seeded onto a 24-well plate (HeLa: 90,000, HEK293: 100,000 and MCF-7 130,000 cells per well) and grown to 80–90% confluency. Then, cells were incubated with the labeled peptides/conjugates in a serum-free medium at 37 °C for various incubation times, and subsequently washed twice with PBS and detached with indicator-free trypsin resuspended in an indicator-free serum-containing medium. The cell suspension was transferred into a 96-well FACS plate and fluorescence was then measured by a Guava easyCyte flow cytometer (Merck, Darmstadt, Germany).The blue laser was used for all measurements, FSC (1137–1538), SSC (3020–4086), Grn-B (647–875) and Red-B (694–939). Cellular autofluorescence of untreated control cells was subtracted.
A general note: A flow cytometer gives signals particle by particle.

In another experiment the test system is HEK-293 spheroids. The experiment is described as follows: Flow cytometry of HEK-293 spheroids. The experiment is classed as cell-based, human. As to conditions: 10 µM CF-labeled peptides, 30 min or 1 h. How it is done: For the preparation and seeding of spheroids, cells were washed and trypsinized as described above. Cells were transferred into a fresh 15 mL centrifuge tube and centrifuged for 5 min at 300× g and rt. The supernatant was removed carefully and the pellet was resuspended in an appropriate medium supplemented with FBS. Cells were counted and a cell mixture was prepared, which would be sufficient for 100 drops (3 mL). Within this mixture a total amount of 1.5 × 10^6 cells (HEK-293 and HeLa cells) and 20% (v/v) methylcellulose (1.2 mg/mL) were required. The missing volume was filled up with an appropriate medium containing FBS; 30 μL drops were pipetted into the inverted lid of a petri dish (15,000 cells per drop), the bottom was covered with PBS and spheroids were grown in hanging drops for two or three days at 37 °C and 5% CO2, respectively.
For flow cytometry studies with tumor spheroids, the spheroids were prepared and grown as described above (4.7). […] After the spheroids started to fall apart, 850 μL of medium with FBS (indicator free) was added and the spheroids were resuspended to generate a homogenous cell suspension; 200 μL of each sample were transferred into a fresh round-bottom 96-well plate and analyzed on a Guava® easyCyte flow cytometer (Merck, Darmstadt, Germany). […]

For the next experiment, the system named is HEK293 cells. In words: Cellular uptake by flow cytometry in HEK293 cells. It counts as cell-based, human. As to conditions: 1 and 10 µM CF-labeled peptide, 30 min, 37 °C, serum-free medium, triplicate n = 3. The method, then:
as §1

For experiment [2], the system named is HeLa cells. In words: Fluorescence microscopy of intracellular distribution in HeLa cells. It counts as cell-based, human. Conditions: 10 µM CF-labeled peptide, 30 min, confocal fluorescence microscopy. The method, then: Cells were seeded into 8-well plates (HeLa cells 35,000 and HFF-1 25,000 cells per well, respectively) and grown to 80–90% confluency. Cells were treated with 10 μM CF- or dox-labeled peptides in a serum-free medium for 30 min at 37 °C. Ten minutes prior to the end of the incubation time, nuclei were stained with Hoechst33342. The peptide solution was removed, and cells were washed five times with PBS and covered with fresh medium including FBS. Microscopic analysis was performed using an inverse confocal TCS SP8 microscope (Leica Microsystems, Wetzlar, Germany), equipped with a 63× oil-immersion objective. Images were recorded with LAS X software (LAS_X_Core_3.7.6_25997, Leica Microsystems, Wetzlar, Germany). For the GUV analysis and the uptake of the peptide-drug conjugates the Keyence fluorescence tabletop microscope BZ-X800E (Keyence, Osaka, Japan), with a 60× oil immersion lens was used. Images were recorded with Keyence software (BZ-800X_Analyzer 1.1.1.8, Keyence, Osaka: Japan) and evaluated with Fiji.
Figure 6 Fluorescence microscope analysis of 5 µM conjugates after 30 min of incubation at 37 °C in HeLa and HFF-1 cells. Red: peptides coupled to red fluorophore Doxorubicin; blue: Hoechst 33342 nuclear stain; BF: brightfield to identify living cells; scale bar is 20 µm.

Experiment [3] can be described thus: Peptide interaction with anionic giant unilamellar vesicles. As to conditions: 1 µM CF-labeled peptide, 30 min, room temperature, fluorescence microscopy, Oyster405 dye outflow. How it is done: A thin agarose layer is necessary to build GUVs. Therefore, 1% super low melting agarose was melted in deionized water by heating up in a microwave. Afterward, 200 µL were coated on a clean slide and dried at 50 °C for 30 min on a heating plate; 10 µL of respective lipid solution was added onto the agarose layer and subsequently distributed and dried for 1 h using an exicator under vacuum to get rid of the chloroform. For staining the lipid layer, 0.2 mol % Atto550 was added. Afterward, a sealing ring was added around the pink lipid film. Lipids were hydrated with dextran buffer (10 mM HEPES buffer (pH 7.4), 50 mM KCl, 50 mM NaCl and 1 mg/mL Dextran) containing 3 µL Oyster405 (Luminaris GmbH, Münster, Germany) encapsulating the blue dye. Slides were incubated for 2 h at RT. […] For fluorescence microscopy analysis, lipids were transferred into an eight-well Ibidi® plate; 40 µL of respective GUV solution was mixed with 1 µM peptide solutions and filled up to 100 µL with dextran buffer. […] Afterward, GUVs were analyzed using a BZ-X800E microscope (Keyence, Osaka, Japan) followed by image processing with ImageJ.
Figure 4 Peptide interaction with […] (GUVs) composed of DOPC/DOPE/DOPG (40:30:30); 1 µM solutions of sC18 variants were incubated with GUVs for 30 min and inspected using a fluorescence microscope (Keyence). […]

RLRKLLRKFLRK-NH2 [sC18*^R,L]: the “cellular uptake” value in the experiment with HeLa cells [1] is “highly significant and enhanced internalization”; in the experiment with HEK293 cells, “highly significant and enhanced internalization”. Besides, the “accumulation in spheroids” value in the experiment with HEK-293 spheroids was “most efficient variants”. Further, the “intracellular accumulation / uptake pattern” value in the experiment with HeLa cells [2] was “highly enriched all over the cytosol including uptake in the nuclei”. For the same substance, the “interaction with anionic GUVs” value in experiment [3] is “strongest accumulation leading to membrane disruption events and complete dye outflow from the vesicles”.
